Source: US9297012B2, “Methods and compositions for inducing deregulation of EPHA7 and ERK phosphorylation in human acute leukemias” (The Ohio State University Research Foundation, priority 2007, dated 2016)

Key:
Assay type in all cases: cell-based, human
SEMK2 cells [1] = experiment: MTT assay, SEMK2; settings: SEMK2, t(4;11); 1 μM; 24, 48 and 72 hr; ratio vs DMSO
Procedure: (§1) At each time point, the cells were subjected to MTT assay (left), Caspase 3 activity assay (middle) and FACS analysis (right). The results of MTT and Caspase 3 activity assays are calculated as a ratio against the value for DMSO-treated cells. Vertical bar in each column indicates standard deviation determined by triplicate assays.
(§2) Methods including Recombinant protein expression in K562 and in KG1 cells, RNA interference, Western blot analysis, and MTT assay, Caspase 3 Activity assay and FACS analysis are available in online Supporting Information.

380 cells = experiment: MTT assay, 380; settings: 380 control cells lacking ALL1 abnormality; 1 μM; 24, 48 and 72 hr
Procedure: as §1, §2

SEMK2 cells [2] = experiment: FACS analysis (subG1), SEMK2; settings: 1 μM
Procedure: as §1
(§3) To determine the cause for the reduction in cell numbers, the 5-ITU-treated cells were subjected to assays determining apoptotic cell death (caspase 3 activity assay and FACS analysis).
as §2

RS4;11 cells [3] = experiment: MTT assay, RS4;11; settings: RS4;11, t(4;11); 1 μM; 24, 48 and 72 hr; ratio vs DMSO
Procedure: as §1, §2

RS4;11 cells [4] = experiment: Caspase 3 activity assay, RS4;11; settings: 1 μM, 24 hr, ratio vs DMSO
Procedure: as §1, §3, §2

SEMK2 cells [5] = experiment: Caspase 3 activity assay, SEMK2; settings: 1 μM, 24 hr, ratio vs DMSO
Procedure: as §1, §3, §2

RS4;11 cells [6] = experiment: FACS analysis (subG1), RS4;11; settings: 1 μM
Procedure: as §1, §3, §2

697 cells = experiment: MTT assay, 697; settings: 697 control cells lacking ALL1 abnormality; 1 μM; 24, 48 and 72 hr
Procedure: as §1, §2

Compound: Nc1ncnc2c1c(I)cn2[C@@H]1O[C@H](CO)[C@@H](O)[C@H]1O [5-ITU, 5-iodotubercidin]
- cell number (MTT assay) (SEMK2 cells [1]): reduction in numbers
- cell number (MTT assay) (380 cells): no diminution in the number
- cells at the subG1 phase (FACS) (SEMK2 cells [2]): high proportion
- cell number (MTT assay) (RS4;11 cells [3]): reduction in numbers
- caspase 3 activity (RS4;11 cells [4]): Increased caspase 3 activity
- caspase 3 activity (SEMK2 cells [5]): Increased caspase 3 activity
- cells at the subG1 phase (FACS) (RS4;11 cells [6]): high proportion
- cell number (MTT assay) (697 cells): no diminution in the number
